The record followed here is article PMC10753699, “Synthesis of Some New 1,3,4-Oxadiazole Derivatives and Evaluation of Their Anticancer Activity” (ACS Omega, 2023).

The subject of one data set is caspase-3. The data set can be described thus: Caspase-3 activation in A549 cells. Conditions: A549, IC50 of the compounds, 24 h. The class given is cell-based, human. On the procedure:
The Spectrofluorometric Caspase-3 Assay kit (BD Pharmingen, Franklin Lakes, NJ) was used to assess the activation of caspase-3. The purpose of the kit was to measure the early indicator of cells going through apoptosis, known as caspase-3 or the DEVD-cleaving activity. First, 1 × 10^6 cells/mL of cells were resuspended in cold cell lysis buffer, rinsed with PBS, and then allowed to sit on ice for 30 min. […] In each reaction, a well containing 0.2 mL of 1 x HEPES buffer was filled with […] of reconstituted AcDEVD-AMC, a synthetic tetrapeptide fluorogenic substrate for caspase-3 activity. Each reaction/well received 20 μL of cell lysate. The reaction mixtures were incubated at 37 °C for 1 h. Using a microplate reader (Perkin-Elmer/Victor/X3) with an excitation wavelength of 380 nm and an emission wavelength of 460 nm, the amount of AMC released from Ac-DEVD-AMC was quantified. When compared with controls, apoptotic cell lysates containing active caspase-3 produced a significant emission. […] For all doses, duplicate wells were used. This experiment was performed according to Yurttaş et al.[52]

Another data set relates to C6 rat glioma cell line. The data set can be described thus: MTT cell viability / cytotoxicity on C6. The class given is cell-based. Conditions: mean ± S.D. of three determinations. The protocol: (§1) The MTT (3-(4,5-dimethylthiazol-2-yl)-2,5-diphenyltetrazolium bromide) method was applicated to assess the cell viability of L929, C6 and A549 cell lines against the tested compounds according to the reported data.[51] In 96-well plates with a flat bottom, the A549, C6, and L929 cells were cultivated at a density of 5 × 10^3 cells per well. […] After addition, they were incubated for a full day in culture wells. Following the incubation period, 20 μL of phosphate-buffered saline (PBS) (Gibco, Paisley, UK) containing 5 mg/mL MTT powder (Sigma-Aldrich, St. Louis, MO, USA) was added to each well. The medium was taken out of the plate and replaced with 100 μL of DMSO in each well to dissolve the dye. This was left for 2 to 4 h under the same conditions and then left for 10 min. At the conclusion of the procedure, purple formazan, the reduction product of the MTT agent, was formed by the mitochondrial dehydrogenase enzyme of intact cells. A microtiter plate reader (BioTek Plate Reader, Winooski, VT, USA) was used to measure the cells at 540 nm. Cell viability was measured as a percentage and contrasted with that of the cells in the control group. Half-maximal inhibitory concentration 50 (IC50) values were determined by repeating each concentration in three wells and identifying the drug concentrations that decreased the absorbance to 50% of control values. The medium control served as the basis for calculating the percentage of viable cells.

For a further data set, the target named is T1, MMP-9 enzyme (Homo sapiens, UniProt P14780).
T1 construct: purchased EnzoLife Sciences Inc. (Farmingdale, New York, NY, USA)
The data set can be described thus: MMP-9 colorimetric inhibition assay. It counts as biochemical. Conditions: for inhibition at 100 µg/mL: at 100 μg/mL. The text has this:
As described in our previous study,[36] the method was applied in exactly the same manner. EnzoLife Sciences Inc. provided MMP-9 colorimetric kits (Farmingdale, New York, NY, USA). The MMP Colorimetric Drug Discovery Kits are a comprehensive test technique that uses a thiopeptide (Ac-PLG-[2-mercapto-4-methyl-pentanoyl]-LG-OC2H5) as a chromogenic substrate to screen MMP inhibitors. Using a microplate reader (BioTek, PowerWave, Gen5 software, Winooski, VT, USA) at room temperature, the UV absorbance was measured at 412 nm. NNGH was employed as an inhibitor of control.

Data set [1] relates to A549 cells. Kind of data set: Mitochondrial membrane depolarization (JC-1, flow cytometry). It counts as cell-based, human. To be noted: A549, IC50 concentration, 24 h. The protocol:
Staining of cells with JC-1 was realized according to the manufacturer’s recommendations of BD, Pharmingen Flow cytometry kit. […] For this purpose, cells were seeded at an optimal density in six-well plates (not exceeding 1 × 10^6/mL cells). The cells were then incubated with the substances to be tested at the appropriate concentration and time. After the treatment, each cell suspension was taken into a 15 mL polystyrene centrifuge tube and the cells were centrifuged at 400g for 5 min and removed from the supernatant. 0.5 mL of a freshly prepared working solution was added to each pellet, and the solution was vortexed. The test cells were soaked in a JC-1 working solution at 37 °C for 10–15 min, and the cells were washed twice. In the first wash, 2 mL of 1X assay buffer was added and the cells were suspended sensitively. Then, the cells were centrifuged at 400g for 5 min and the supernatant was removed, carefully. In the second wash, 1 mL of 1X assay buffer was added and vortexed. After the cells were centrifuged at 400g for 5 min, each cell pellet was suspended in 0.5 mL 1X assay buffer and vortexed. Finally, the cell was analyzed by a flow cytometer.
(Flow cytometry measures light scatter and fluorescence of single cells or particles in a stream.)

Data set [2] concerns A549 cells. Kind of data set: Cell cycle analysis by flow cytometry. To be noted: A549, 24 h incubation. The class given is cell-based, human. The protocol:
Following a 24 h incubation period with the compounds, a cell cycle analysis measurement methodology was implemented in compliance with the manufacturer’s instructions for A549 cells (BD, Biosciences). Next, the cells were immersed in citrate buffer for a short while. At room temperature, the cells were centrifuged for 5 min at 400 g. After the supernatant was decanted, 250 μL of solution A was added to the pellet, and it was allowed to sit at room temperature for 10 min. Solution B (200 μL) was then added, carefully mixed, and incubated at room temperature for 10 min. Solution C (200 μL) was then added. It was gently mixed, allowed to stand at 4 °C for 10 min in the dark, and then examined using BD Bioscience’s MODFID software on a flow cytometer. This method was applied in our previous study.[54]

For data set [3], the system named is L929 murine fibroblast cell line. The data set can be described thus: MTT cell viability / cytotoxicity on L929 (healthy cells). The class given is cell-based, mouse. To be noted: mean ± S.D. of three determinations. On the procedure: (§2) In 75 cm^2 sterile plastic tissue culture flasks, the human lung adenocarcinoma A549 and the mouse fibroblast L929 cell lines were cultured in 90% RPMI (Sigma, Deisenhofen, Germany) media supplemented with 10% (v/v) FBS (Gibco, Paisley, UK) and adherent monolayers of penicillin/streptomycin (100 units/mL) from Gibco, Paisley, UK. These cells were cultured at 37 °C in an environment that was humidified and contained 5% CO2.
as §1

Data set [4] concerns A549 human lung cancer cell line. Kind of data set: MTT cell viability / cytotoxicity on A549. Conditions: for IC50: Homo sapiens, A549, A549 cell line, MTT, mean ± S.D. of three determinations; for inhibition of A549 at the lowest concentration tested: A549, MTT; for SI (L929/A549): selectivity index = IC50 on normal cells/IC50 on cancer cells. The class given is cell-based. The protocol:
as §2, §1

Data set [5] deals with A549 cells. The data set can be described thus: Early/late apoptosis by Annexin V-FITC/PI flow cytometry. Conditions: A549, IC50 dose, 24 h incubation. It counts as cell-based, human.
Description: Phosphatidylserine externalization, a marker of early apoptosis, was assessed using the FITC Annexin V apoptosis detection kit (BD Pharmingen, San Jose, CA, USA) on a BD FACSAria flow cytometer. Following their collection, the A549 and L929 cells were twice washed in ice-cold PBS before being resuspended in 100 μL of binding buffer. The cells were treated with a volume of 5 μL (5 μg/mL) of Annexin V-FITC and PI, and they were incubated for 15 min at room temperature (20–25 °C) in the dark. Following that, 400 μL of binding buffer was added to the combination samples, and FACSDiva version 6.1.1 was used to analyze the samples on a BD FACSAria flow cytometer.
[6] abbreviates: Mus musculus, L929, L929 healthy cell line.

T1 sequence (P14780 107-444 limits assumed): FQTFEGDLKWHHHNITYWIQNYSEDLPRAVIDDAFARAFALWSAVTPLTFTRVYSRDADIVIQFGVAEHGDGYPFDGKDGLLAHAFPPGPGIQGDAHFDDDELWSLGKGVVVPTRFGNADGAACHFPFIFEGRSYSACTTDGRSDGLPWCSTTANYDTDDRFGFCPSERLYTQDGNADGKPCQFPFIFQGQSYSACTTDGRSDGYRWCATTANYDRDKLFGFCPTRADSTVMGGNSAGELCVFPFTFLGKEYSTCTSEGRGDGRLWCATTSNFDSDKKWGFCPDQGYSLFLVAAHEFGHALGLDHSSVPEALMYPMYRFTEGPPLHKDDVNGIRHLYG

In turn, `CC(=O)Nc1ccccc1OCc1nnc(SCC(=O)Nc2nc3ccc(F)cc3s2)o1` [Compound 4f, 2-[(5-((2-Acetamidophenoxy)methyl)-1,3,4-oxadiazol-2-yl)thio]-N-(6-fluorobenzothiazol-2-yl)acetamide] registered a melting point of 207 to 209 °C. Also, in the data set with caspase-3, the “% (+): caspase-3 activity positive cells” value was found to be 3.4% and the “% (−): caspase-3 activity negative cells” value is recorded as 97.1%. Further, the IC50 with C6 rat glioma cell line was found to be 13 ± 3.72 µM. At MMP-9 enzyme, the concentration for half-maximal inhibition (IC50) turned out to be 24.5 ± 2.12 µM and the inhibition at 100 µg/mL was more than 75%. For the same compound, in the data set on A549 cells [1], the “mitochondrial membrane depolarization %” value amounted to 13.03% and the “mitochondrial membrane polarization %” value is recorded as 85.97%. In addition, in the data set with A549 cells [2], the “% S” value turned out to be 0.0%, the G0/G1% was found to be 63.53% and the G2/M % came to 36.47%. The compound further returned an IC50 in [3] (setting [6]) of 19.4 ± 0.89 µM. The compound also registered a half-inhibitory concentration (IC50) in [4] of 6.62 ± 0.32 µM. Besides, in the data set with A549 cells [5], the “Q1: necrotic cells” value worked out at 26.25%, the “Q2: late apoptotic cells” value was found to be 6.7%, the “Q3: viable cells” value is given as 58.53% and the “Q4: early apoptotic cells” value was 8.51%.

Consider `CC(=O)Nc1ccccc1OCc1nnc(SCC(=O)Nc2ccccc2)o1` [Compound 4h, 2-[(5-((2-Acetamidophenoxy)methyl)-1,3,4-oxadiazol-2-yl)thio]-N-phenylacetamide], for which the melting point fell in the range of 188 to 191 °C. Besides, in the data set with caspase-3, the “% (+): caspase-3 activity positive cells” value was found to be 2.7% and the “% (−): caspase-3 activity negative cells” value turned out to be 97.5%. For the same compound, the IC50 with C6 rat glioma cell line is more than 1000 µM. In addition, at MMP-9 enzyme, the IC50 is 1.65 ± 0.21 µM and the inhibition at 100 µg/mL was more than 75%. Also, in the data set on A549 cells [1], the “mitochondrial membrane depolarization %” value is on record as 8.75% and the “mitochondrial membrane polarization %” value worked out at 90.74%. In addition, in the data set on A549 cells [2], the “% S” value is on record as 0.0%, the G0/G1% worked out at 89.66% and the G2/M % is listed as 10.34%. The same compound showed a 50% inhibitory concentration (IC50) in data set [3] (setting [6]) of 31.4 ± 1.76 µM. In data set [4], this compound yielded an IC50 of less than 0.14 µM. Also, in the data set with A549 cells [5], the “Q1: necrotic cells” value is 26.94%; the “Q2 + Q4: early and late apoptotic cells” value is 19.20%; the “Q2: late apoptotic cells” value is on record as 7.28%; the “Q3: viable cells” value came out at 53.94%. The “Q4: early apoptotic cells” value in the data set with A549 cells [5] is recorded as 11.84%.

As to `CCOc1ccc2nc(NC(=O)CSc3nnc(COc4ccccc4NC(C)=O)o3)sc2c1` [Compound 4g, 2-[(5-((2-Acetamidophenoxy)methyl)-1,3,4-oxadiazol-2-yl)thio]-N-(6-ethoxybenzothiazol-2-yl)acetamide], the melting point is 208 to 212 °C. In addition, half-maximal inhibition with C6 rat glioma cell line (IC50) required 8.16 ± 0.24 µM. On MMP-9 enzyme, this compound displayed an IC50 of 7.1 ± 1.27 µM and an inhibition at 100 µg/mL of more than 75%. The compound further had a 50% inhibitory concentration (IC50) in [3] (L929 healthy cell line) of less than 7.82 µM. The concentration for half-maximal inhibition (IC50) in data set [3] (setting [6]) is less than 7.96 µM. Moreover, in data set [4], the “inhibition of A549 at the lowest concentration tested” value is listed as “greater than 50%”, the IC50 was less than 7.82 µM and the “SI (L929/A549)” value is listed as less than 1.

Take `CC(=O)Nc1ccccc1OCc1nnc(SCC(=O)Nc2nc3ccccc3s2)o1` [Compound 4a, 2-[(5-((2-Acetamidophenoxy)methyl)-1,3,4-oxadiazol-2-yl)thio]-N-(benzothiazol-2-yl)acetamide]: the melting point is 189 to 194 °C. The compound further had a half-inhibitory concentration (IC50) in the data set with C6 rat glioma cell line of 18.5 ± 5.58 µM. Moreover, on MMP-9 enzyme, the inhibition at 100 µg/mL was determined as 41.4 ± 1.85%. In data set [3] (setting [6]), 586 ± 22.9 µM corresponded to half-maximal inhibition (IC50). Further, in data set [4], the IC50 worked out at 22.3 ± 1.67 µM and the “SI (L929/A549)” value turned out to be 26.250.

`CC(=O)Nc1ccccc1OCc1nnc(SCC(=O)Nc2nc3ccc(C)cc3s2)o1` [Compound 4e, 2-[(5-((2-Acetamidophenoxy)methyl)-1,3,4-oxadiazol-2-yl)thio]-N-(6-methylbenzothiazol-2-yl)acetamide] showed a melting point of 213 to 216 °C. In the data set with C6 rat glioma cell line, this compound had a 50% inhibitory concentration (IC50) of 458 ± 28.2 µM. Besides, on MMP-9 enzyme, half-maximal inhibition (IC50) required 19.5 ± 3.18 µM and the inhibition at 100 µg/mL was more than 50%. This compound also showed an IC50 in data set [3] (setting [6]) of 29.9 ± 3.01 µM. Also, in data set [4], the IC50 came out at 43 ± 2.79 µM and the “SI (L929/A549)” value worked out at 0.69.

With `CC(=O)Nc1ccccc1OCc1nnc(SCC(=O)Nc2ccc([N+](=O)[O-])cc2)o1` [Compound 4j, 2-[(5-((2-Acetamidophenoxy)methyl)-1,3,4-oxadiazol-2-yl)thio]-N-(4-nitrophenyl)acetamide], the melting point lay within 210 to 215 °C. The 50% inhibitory concentration (IC50) in the data set on C6 rat glioma cell line was more than 1000 µM. On MMP-9 enzyme, this compound had an IC50 of 22 ± 1.41 µM and an inhibition at 100 µg/mL of more than 50%. In [3] (L929 healthy cell line), the IC50 is less than 8.8 µM. In [3] (setting [6]), this compound yielded an IC50 of less than 7.96 µM. Further, in data set [4], the “inhibition of A549 at the lowest concentration tested” value is “greater than 50%”, the 50% inhibitory concentration (IC50) is less than 8.8 µM and the “SI (L929/A549)” value is recorded as less than 1.

The term melting point denotes the temperature, or range, at which the solid turns liquid. Usually IC50 stands for the concentration at which inhibition is half-maximal. High values mean a need for much substance, low ones inhibition by little substance. One may read the inhibition as the relative decrease from the control value, in per cent.
